{
  "source": "patent US7115586B2",
  "about": "“Non-inclusion cyclodextrin complexes” (Decode Genetics EHF., priority 2001, dated 2006)",
  "key": {"[1]": {"test": "Phase-solubility of cholesterol in aqueous cyclodextrin solutions", "type": "physicochemical", "settings": "aqueous solutions of various β-cyclodextrin derivatives (RMβCD, HPβCD, SBEβCD, TMAβCD, CMβCD), ambient temperature (FIG. 7)", "from_the_text": "This left a very thin layer of cholesterol on the inner surface of the vials."}, "[2]": {"settings": "octanol/water partition coefficient, unionized form; cited from earlier work"}, "[3]": {"test": "physchem", "settings": "22.5 °C, pH 6, aqueous buffer, thermodynamic from solid"}, "[4]": {"test": "Experiment A: solubility of alprazolam and diflunisal sodium salt in 10% HPβCD", "settings": "for solubility at 7 days: 22.5 °C, pH 8.36, aqueous with cosolvent or surfactant or cyclodextrin, thermodynamic from solid"}, "[5]": {"test": "Phase-solubility in aqueous HPβCD solutions"}, "[6]": {"test": "Job's plots (continuous variation, NMR and UV)", "type": "physicochemical", "settings": "sodium salts, buffered solutions (FIG. 3)", "description": "The total molar concentration (i.e., the combined concentration of drug and HPβCD in moles per liter) was kept constant, but the mole fraction of HPβCD (i.e., [HPβCD]/([drug]+[HPβCD])) were varied from 0.1 to 0.9. The buffer salts were dissolved in 30% (v/v) D2O in water and appropriate amounts of drug and HPβCD were dissolved in the buffer solution. […] […]. The NMR spectra were recorded at 297 K on a Bruker AZ250P 250 MHZ spectrometer (USA). The UV-detector used was a Perkin-Elmer Lambda 3A Spectrophotometer (USA)."}, "[7]": {"test": "Viscosity (Brookfield digital viscometer)", "type": "physicochemical", "settings": "20% (w/v) HPβCD solution"}, "[8]": {"settings": "pure water at approximately 25° C.; cited from earlier work"}, "[9]": {"test": "physchem", "settings": "22.5 °C, pH 8.36, aqueous with cosolvent or surfactant or cyclodextrin, thermodynamic from solid"}},
  "note": "Values joined by “and” are separate entries in the source; they are usually repeats but may differ in a detail not shown here. Equal values may be shown once. Where a name gives a salt, the structure may show the parent alone. Read-outs that look alike come from different tables or passages of the source.",
  "data": [
    {"compound": "CC(C)CCC[C@@H](C)[C@H]1CC[C@H]2[C@@H]3CC=C4C[C@@H](O)CC[C@]4(C)[C@H]3CC[C@]12C", "note": "[cholesterol]", "values": [
      {"measurement": "type of phase-solubility diagram", "setting": "[1]", "value": "AP-type"},
      {"measurement": "log P", "setting": "[2]", "value": 8.5}
    ]},
    {"compound": "CC(C)Cc1ccc(C(C)C(=O)[O-])cc1.[Na+]", "note": "(stereo not shown) [ibuprofen sodium salt]", "values": [
      {"measurement": "slope of phase-solubility diagram", "setting": "pH 6.12", "value": 1.12},
      {"measurement": "slope of phase-solubility diagram", "setting": "pH 6.28", "value": 1.17},
      {"measurement": "slope of phase-solubility diagram", "setting": "pH 6.72", "value": 1.12}
    ]},
    {"compound": "CC/C(=C(/CC)c1ccc(O)cc1)c1ccc(O)cc1", "note": "[Diethylstilbestrol]", "values": [
      {"measurement": "solubility at 7 days", "setting": "[3]", "value": 10, "unit": "µM"},
      {"measurement": "Complexation efficiency (slope/(1 − slope))", "setting": "pH 6", "value": 2},
      {"measurement": "Slope of the phase-solubility diagram", "setting": "pH 6", "value": 0.71},
      {"measurement": "shape of phase-solubility diagram", "setting": "pH 6", "value": "non-linear"},
      {"measurement": "type of phase-solubility diagram", "setting": "pH 6", "value": "AL-type"}
    ]},
    {"compound": "O=C(O)Cc1ccccc1Oc1ccc(Cl)cc1Cl", "note": "[fenclofenac]", "values": [
      {"measurement": "log P", "setting": "[2]", "value": 4.8}
    ]},
    {"compound": "Cc1nnc2n1-c1ccc(Cl)cc1C(c1ccccc1)=NC2", "note": "[Alprazolam]", "values": [
      {"measurement": "increase in solubility", "setting": "[4]; 10% HPβCD saturated with diflunisal vs 10% HPβCD alone", "value": 108, "unit": "%"},
      {"measurement": "solubility at 7 days", "setting": "[4]; 10% (w/v) HPβCD solution previously saturated with diflunisal", "value": "1230 µg/mL and 3980 µM"},
      {"measurement": "solubility at 7 days", "setting": "[4]; 10% aqueous HPβCD solution, unbuffered, room temperature", "value": "590 µg/mL and 1910 µM"},
      {"measurement": "solubility at 7 days", "setting": "[5]; 22.5 °C, pH 6, aqueous buffer, thermodynamic from solid", "value": 200, "unit": "µM"},
      {"measurement": "type of phase-solubility diagram", "setting": "[5]; HPβCD containing pH 6.0 aqueous phosphate buffer solution, no second drug (FIG. 4)", "value": "AL-type"},
      {"measurement": "type of phase-solubility diagram", "setting": "[5]; aqueous HPβCD solutions saturated with the sodium salt of diflunisal (FIGS. 5, 6)", "value": "AL-type"},
      {"measurement": "type of phase-solubility diagram", "setting": "[5]; in the presence of ibuprofen (FIG. 4A)", "value": "AL-type"}
    ]},
    {"compound": "CC(C)Cc1ccc(C(C)C(=O)O)cc1", "note": "(stereo not shown) [ibuprofen]", "values": [
      {"measurement": "mole fraction of HPβCD in the complex (Job's plots)", "setting": "[6]", "value": 0.5},
      {"measurement": "effect of increase in ionic strength on solubility", "setting": "pH 6", "value": "does not effect"},
      {"measurement": "slope of phase-solubility diagram", "setting": "pH 6", "value": 1.2},
      {"measurement": "type of phase-solubility diagram", "setting": "pH 6", "value": "AL-type"}
    ]},
    {"compound": "CC(C)CCC[C@@H](C)[C@H]1CC[C@H]2C3=CC=C4C[C@@H](O)CC[C@]4(C)[C@H]3CC[C@]12C", "note": "[dehydrocholesterol]", "values": [
      {"measurement": "log P", "setting": "[2]", "value": 7.8}
    ]},
    {"compound": "2-Hydroxypropyl-β-cyclodextrin", "values": [
      {"measurement": "viscosity", "setting": "[7]", "value": 2.10, "unit": "cPoise"}
    ]},
    {"compound": "carotene", "values": [
      {"measurement": "log P", "setting": "[2]", "value": "> 10"}
    ]},
    {"compound": "Oc1cc(Cl)ccc1Oc1ccc(Cl)cc1Cl", "note": "[triclosan]", "values": [
      {"measurement": "log P", "setting": "[2]", "value": 4.8}
    ]},
    {"compound": "β-cyclodextrin sulfobutyl ether sodium salt", "values": [
      {"measurement": "Solubility in water", "setting": "[8]", "value": ">500", "unit": "mg/mL"}
    ]},
    {"compound": "O=C(O)c1cc(-c2ccc(F)cc2F)ccc1O", "note": "[diflunisal]", "values": [
      {"measurement": "mole fraction of HPβCD in the complex (Job's plots)", "setting": "[6]", "value": 0.5},
      {"measurement": "solubility at 7 days", "setting": "[9]", "value": "~47", "unit": "mg/mL"},
      {"measurement": "log P", "setting": "[2]", "value": 4.4},
      {"measurement": "slope of phase-solubility diagram", "setting": "pH 6", "value": 1.1},
      {"measurement": "type of phase-solubility diagram", "setting": "pH 6", "value": "AL-type"}
    ]},
    {"compound": "O=C(O)c1cc(-c2ccc(F)cc2F)ccc1O", "note": "[sodium salt of diflunisal, diflunisal sodium salt]", "values": [
      {"measurement": "slope of phase-solubility diagram", "setting": "pH 8.36", "value": 1.1},
      {"measurement": "type of phase-solubility diagram", "setting": "pH 8.36", "value": "AL-type"}
    ]}
  ]
}
